Test results as given in article PMC5082894 (PLoS ONE, 2016).

Columns and labels:
[1] = target: T1, MN gp120 binding to heparan sulfate (HS) (Human immunodeficiency virus type 1 group M subtype B, UniProt P05877); assay: biochemical; set-up: species or system HIV-1
T1 construct: MN gp120 (50 μg/ml in 5 mM maleate buffer, pH 6); purchased Immunodiagnostics (Massachusetts, USA)
Method: (§1) For that purpose, CM4 sensorchips were activated with 50 μL of 0.2 M N-ethyl-N’-([…])-carbodiimide (EDC) and 0.05 M N-hydroxy-succimide (NHS) at 5 μL/min. Then soluble CD4 (10 μg/mL in 10 mM acetate buffer, pH 5), streptavidin (200 μg/mL in 10 mM acetate buffer, pH 4.2), mAb 17b (5 μg/mL in 10 mM acetate buffer, pH 5), MN gp120 (50 μg/ml in 5 mM maleate buffer, pH 6) or YU2 gp120 (50μg/mL in 10 mM acetate buffer, pH 4.8) were injected at 5 μL/min over one of the EDC/NHS activated flow cell until levels of 1200 (for sCD4), 700 (for mAb 17b), 3000 (for streptavidin), or 4500 (for gp120s) response units (RU) were achieved. HS (1 mM in phosphate-buffered saline) was biotinylated through its reducing end by reductive amination with 10 mM of biotin-LC-Hydrazine (Pierce) and captured on the streptavidin surface (20 μg/mL in 10 mM Hepes buffer pH 7.4 and 0.3 M NaCl) to a level of 60–80 RU as described. Surfaces were then blocked with 1M ethanolamine (pH 8.5) for 5 minutes.
CD4, mAb 17b and gp120 surfaces were regenerated by 1 min injection of 10 mM HCl and the HS surface was regenerated with a 1 min injection of 0.05% SDS followed by a 3 min injection of 2 M NaCl.

[2] = target: T2, MN gp120/CD4 complex binding to mAb 17b (co-receptor binding site) (Human immunodeficiency virus type 1 group M subtype B, UniProt P05877); set-up: species or system HIV-1; conditions: Fig 4E
T2 construct: purchased Immunodiagnostics (Massachusetts, USA)
Method: as §1, with “minutes. […]” for “minutes.”
(§2) The specific binding responses in resonance unit (RU) for MN- (A) and YU2- (B) gp120 were recorded as a function of time (s). […] The specific binding responses in resonance unit (RU) for MN- (C, E) and YU2- (D, F) gp120 were recorded as a function of time (s), and after each injection, the surface was regenerated by a short pulse of 10 mM HCl. […]

[3] = target: T3, YU2 gp120/CD4 complex binding to mAb 17b (co-receptor binding site) (Human immunodeficiency virus type 1 group M subtype B, UniProt P35961); set-up: species or system HIV-1; conditions: Fig 4F
T3 construct: purchased Immunodiagnostics (Massachusetts, USA)
Method: as §1, with “minutes. […]” for “minutes.”
as §2

HIV-1 92UG029 (A-X4) = assay: PBMC antiviral assay (RT activity), HIV-1 92UG029; assay type: cell-based; conditions: Human immunodeficiency virus 1, PBMC, 168 h; PHA-P-activated PBMCs, 125 TCID50, day 7, RT activity
Method: In order to confirm antiretroviral activity of the compounds, using a cell model closer to the pathophysiology, Peripheral Blood Mononuclear Cells (PBMCs) were separated from a buffy-coat from healthy HIV-, HCV-, HBV-seronegative blood donors by Ficoll-Hypaque density gradient centrifugation. The PBMCs were activated by incubation with 1 μg/ml phytohemagglutinin-P (PHA-P; Difco Laboratories) for three days in RPMI 1640 medium supplemented with 10% heat-inactivated fetal calf serum (FCS, +56 ◦C for 45 min), 2mM l-glutamine and a 1% antibiotic cocktail (penicillin, streptomycin, neomycin). After this mitogen activation, PBMCs were cultivated in the same culture medium supplemented with recombinant human interleukin-2 (rHuIL-2; 20 IU/mL) and treated and/or infected. […] All these viruses were amplified in vitro with PHA-P-activated blood mononuclear cells and 50% tissue culture infectious doses (TCID50) were calculated using Kärber’s formula [37], after limited-dilution titration. […] Viral replication was measured by quantifying reverse transcriptase (RT) activity in the cell culture supernatants using the Lenti RT Activity Kit (Cavidi) and AZT was used as reference anti-HIV-1 molecule. EC50 were then calculated and expressed in μM.

[4] = tested on: HIV-1 reference strains and clinical isolates; assay: PBMC antiviral assay, whole panel of strains; assay type: cell-based
Method: The PBMCs were activated by incubation with 1 μg/ml phytohemagglutinin-P (PHA-P; Difco Laboratories) for three days in RPMI 1640 medium supplemented with 10% heat-inactivated fetal calf serum (FCS, +56 ◦C for 45 min), 2mM l-glutamine and a 1% antibiotic cocktail (penicillin, streptomycin, neomycin). After this mitogen activation, PBMCs were cultivated in the same culture medium supplemented with recombinant human interleukin-2 (rHuIL-2; 20 IU/mL) and treated and/or infected. PBMCs were infected either with the reference lymphotropic (-X4) HIV-1 LAI strain [35], the reference macrophage-tropic (-R5) HIV-1 BaL strain [36] or with 4 different clinical isolates (subtype A, B or C). All these viruses were amplified in vitro with PHA-P-activated blood mononuclear cells and 50% tissue culture infectious doses (TCID50) were calculated using Kärber’s formula [37], after limited-dilution titration. […] Cell supernatants were collected at day 7 post-infection and stored at -20°C. Viral replication was measured by quantifying reverse transcriptase (RT) activity in the cell culture supernatants using the Lenti RT Activity Kit (Cavidi) and AZT was used as reference anti-HIV-1 molecule. EC50 were then calculated and expressed in μM. […]

[5] = tested on: PD-1 expression on CD4+ and CD8+ T cells; assay: Flow cytometry of PD-1 on T cells without HIV-1 (IND02-trimer alone); assay type: cell-based, human; conditions: no HIV-1, day 9 post exposure
[6] = Stability studies in formulations; assay type: physicochemical; conditions: in various formulations

Oc1cc(O)c2c(c1)O[C@@]1(c3ccc(O)c(O)c3)Oc3cc(O)c4c(c3[C@@H]2[C@H]1O)O[C@H](c1ccc(O)c(O)c1)[C@H](O)[C@H]4c1c(O)cc(O)c2c1O[C@H](c1ccc(O)c(O)c1)[C@H](O)C2 [IND02-trimer, cinnamtannin B1]
IC50 [1]: 7500 ± 3500 nM | concentration from which inhibition of MN gp120/CD4 binding to mAb 17b was observed [2]: ≥ 50 µM | concentration from which inhibition of YU2 gp120/CD4 binding to mAb 17b was observed [3]: ≥ 50 µM | EC50 (HIV-1 92UG029 (A-X4)): 2300 nM | EC50 ([4]; Human immunodeficiency virus 1, PBMC, read-out: EC50 over the panel of strains): 800 to 7000 nM | ED50 against a range of clinical isolates from different clades ([4]; PBMCs): 1000 to 7000 nM | % CD4+/PD-1+ ([5]; 0.4 μg/ml / 0.46 μM): 33.8% | % CD8+/PD-1 ([5]; 0.4 μg/ml / 0.46 μM): 23.7% | % CD4+/PD-1+ ([5]; 2 μg/ml / 2.31 μM): 35.0% | % CD8+/PD-1 ([5]; 2 μg/ml / 2.31 μM): 23.5% | % CD4+/PD-1+ ([5]; 4 μg/ml / 4.6 μM): 32.1% | % CD8+/PD-1 ([5]; 4 μg/ml / 4.6 μM): 23.7% | % CD4+/PD-1+ ([5]; 20 μg/ml / 23.1 μM): 32.0% | % CD8+/PD-1 ([5]; 20 μg/ml / 23.1 μM): 23.9% | % CD4+/PD-1+ ([5]; 40 μg/ml / 46 μM): 32.7% | % CD8+/PD-1 ([5]; 40 μg/ml / 46 μM): 23.5% | time over which the compound is stable [6]: ≥ 6 months
